# US20090239217A1, “STEM-LIKE CELLS IN BONE SARCOMAS” (University of Florida Research Foundation, Inc., priority 2008, published 2009)
# Legend:
# [1] = system: osteosarcoma cultures; experiment: Tumor generation by osteosarcoma cells cultured with BMP4/7; format: in vivo; details: cells cultured in DMEM with 75-100 ng/ml BMP4/7; 10 weeks post-treatment
# Method: (§1) Cells were cultured in DMEM and 75-100 ng/ml of BMP4/7 (control cells were not cultured with BMP4/7).
# [2] = system: Oct-4/GFP+ OS521 cells; experiment: Tumor formation in NOD/SCID mice after in vitro pretreatment of Oct-4/GFP-enriched OS521 cells with differentiation inducers; format: in vivo; details: 3×10^4 cells per mouse
# Description: It was hypothesized that if the Oct-4/GFP+ tumorigenic cells reflected a stem-like phenotype, their tumorigenic ability might also be inhibited by forced cellular differentiation. Therefore prior to delivery into the NOD/SCID mouse model, the Oct-4/GFP-enriched cell populations were pretreated in vitro with three different compounds known to be potent inducers of differentiation: ATRA, leukemia inhibitory factor (LIF), and recombinant bone morphogenetic protein (BMP) 4/7 heterodimer and evaluated their effect of each on tumorigenicity.
# Following delivery of Oct-4/GFP transfected OS521 cells into NOD/SCID mice, cells isolated from the resultant tumors were sorted by FACS and the GFP-enriched population was plated in 12 well plates and treated with either LIF (10^4 to 0.5×10^2 U/ml), ATRA (1 μM), or recombinant BMP 4/7 (100 ng/ml) for 72 hours. Untreated cells were used as controls. Following the incubation period, 5 NOD/SCID mice per group were injected at 3×10^4 cells per mouse with cells from each treated pool and the mice were monitored for subsequent tumor formation. […] The BMPs are members of the TGF-β superfamily and are known to be potent agents of cellular differentiation, particularly with respect to chondro- and osteoinduction of mesenchymal progenitor cells. BMP 4/7 appears to inhibit the tumorigenesis of the Oct-4/GFP+ OS521 cells after transient induction.
# [3] = system: Oct-4/EGFP expression; experiment: Oct-4/EGFP expression in osteosarcoma cultures treated in vitro; format: cell-based; details: osteosarcoma cultures in DMEM with 75-100 ng/ml BMP4/7; FIG. 13
# Method: as §1
compound,measurement,setting,value
recombinant bone morphogenetic protein (BMP) 4/7 heterodimer [BMP 4/7],tumor generation by treated cells,[1],have not yet generated tumors
same,tumor formation,"[2]; GFP-enriched OS521 cells treated with recombinant BMP 4/7 100 ng/ml for 72 hours, followed twelve weeks",none of the mice in the BMP 4/7 treated group developed tumors by twelve weeks
same,Oct-4/EGFP expression,[3],affects Oct-4/EGFP expression
"CC1=C(/C=C/C(C)=C/C=C/C(C)=C/C(=O)O)C(C)(C)CCC1 [ATRA, reference compound]",tumor formation,[2]; GFP-enriched OS521 cells treated with ATRA 1 μM for 72 hours,tumor formation by 5 weeks
leukemia inhibitory factor [LIF],tumor formation,[2]; GFP-enriched OS521 cells treated with LIF 10^4 to 0.5×10^2 U/ml for 72 hours,tumor formation by 5 weeks
